Reference: article PMC7069095, “A cell-permeable peptide-based PROTAC against the oncoprotein CREPT proficiently inhibits pancreatic cancer” (Theranostics, 2020)
“Also recorded” adds a separate entry of the source. Non-standard residues stand in square brackets, D forms with d. Residues, ends and D or L forms follow the SMILES beside them. Hyp = O=C(O)[C@@H]1C[C@@H](O)CN1; Ahx = NCCCCCC(=O)O

Legend:
Panc-1 xenograft tumors = test: Xenograft tumor model; type: in vivo; settings: female Balb/c nude mice, 10 mg/kg intraperitoneal every 2 days for 4 weeks, n=5, in comparison with control mice
Experimental: (§1) For the xenograft model, 5×10^6 wild-type Panc-1 cells or CREPT knockout Panc-1 cells were subcutaneously injected into 4-week-old female Balb/c nude mice, which were purchased from Beijing Vital River Laboratory Animal Technology Co., Ltd. Each experimental group consisted of five mice. Mice bearing tumors were randomly divided into two groups and administered via intraperitoneal injection control solvent (0.9% saline) or PRTC (dissolved in 0.9% saline, 10 mg/kg) every 2 days for 4 weeks. The body weight of mice were measured every week after treated with 0.9% saline or PRTC. Tumor volume was measured by using the formula V = (a × b^2)/2 (V is volume, a is the length of the tumor, b is the width of the tumor).

HPDE6-C7 cells = test: Cell proliferation assay; type: cell-based; settings: little CREPT expression
Experimental: Cells were seeded into 96-well plates (1000 cells per well) and cultured for the indicated times. Cell viability was evaluated using a CCK-8 kit (Solarbio, Beijing, China). The value of OD450 was calculated by spectrophotometer and presented as the mean ± standard deviation (SD) from three individual experiments. […]
(H) Cell proliferation assay of
HPDE6-C7 cells. […] HPDE6-C7
(§2) is anormal pancreatic epithelial cell line.
(§3) (1 picture or pasted object on this page, not shown here)

Panc-1 cells = test: Cell viability assay (CCK-8); type: cell-based; settings: 10 μM, CCK-8, OD450, three individual experiments
Experimental: Cells were seeded into 96-well plates (1000 cells per well) and cultured for the indicated times. Cell viability was evaluated using a CCK-8 kit (Solarbio, Beijing, China). The value of OD450 was calculated by spectrophotometer and presented as the mean ± standard deviation (SD) from three individual experiments.

[1] = biological target: T1, endogenous CREPT protein in MIA PaCa-2 cells (Homo sapiens, UniProt Q9NQG5); test: Western blot of endogenous CREPT (degradation); type: cell-based; settings: 24 h incubation
T1 construct: endogenous protein level of CREPT in Panc-1, AsPc-1 and MIA-PaCa-2 cells; endogenous in cells; host or cells: Panc-1, AsPc-1, MIA PaCa-2
T1 sequence (Q9NQG5 1-326): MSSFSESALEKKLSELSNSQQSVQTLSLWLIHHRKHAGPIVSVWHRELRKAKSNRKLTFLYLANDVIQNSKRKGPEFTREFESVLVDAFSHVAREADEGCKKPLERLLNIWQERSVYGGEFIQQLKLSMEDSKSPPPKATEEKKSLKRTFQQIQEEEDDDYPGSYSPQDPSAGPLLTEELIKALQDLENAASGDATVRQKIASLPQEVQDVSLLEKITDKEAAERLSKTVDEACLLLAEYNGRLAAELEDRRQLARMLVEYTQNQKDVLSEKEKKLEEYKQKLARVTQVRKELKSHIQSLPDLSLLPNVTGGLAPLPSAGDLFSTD
Experimental: For exogenous immunoprecipitation assays, HEK293T cells were plated in 60 mm dishes and then transfected with the indicated plasmids. After 24 h, cells were harvested using RIPA buffer (50 mM Tris-HCl pH 8.0, 2 mM EDTA pH 8.0, 150 mM NaCl, 1% NP-40, 0.5% sodium deoxycholate, 0.1% SDS) with mixed protease inhibitors. Cell lysates were incubated with 2 μg of the indicated antibodies and 30 μL of protein A/G-Sepharose beads at 4 °C overnight. Beads were eluted five times with lysis buffer (50 mM Tris-HCl pH 7.6, 1 mM EDTA pH 8.0, 165 mM NaCl, 0.5% NP-40), and thereafter, a western blot assay was performed to analyze the association by using the indicated antibodies. Western blot was performed as previously reported. Anti-β-actin and anti-Flag antibodies were purchased from Sigma. Anti-Myc antibody was purchased from Santa Cruz Biotechnology. Antibody against CREPT was produced in the laboratory.
To address whether PRTC could induce CREPT degradation, we examined the endogenous protein level of CREPT in Panc-1, AsPc-1 and MIA-PaCa-2 cells in the presence of different dosages of PRTC. […] Consistently, treatment with PRTC led to decreases in CREPT protein at different times (Figure 5B, S3A). […] To further visualize the degradation process, we stained the endogenous CREPT protein with an antibody against CREPT in the cells treated with FITC-labeled PRTC.
Figure S3. PRTC induces CREPT degradation. […]

[2] = Body weight and toxicity in mice bearing xenograft tumors; type: in vivo, Balb/c nude mice; settings: 10 mg/kg intraperitoneal, and HPDE6-C7 cells
Experimental: as §1

MIA PaCa-2 cells = test: Colony formation; type: cell-based; settings: 10 μM, than the control cells
Experimental: (§4) Cells were seeded into 6-well plates (500 cells per well) and cultured for 10 days, then washed with PBS and stained with 0.1% crystal violet. The number of colonies was counted by ImageJ and presented as the mean ± standard deviation (SD) from three individual experiments. […]
(§5) tumorigenesis in AsPc-1 and MIA PaCa-2 cells. (A-B) Colony formation of AsPc-1 respectively treated with deionized H2O (Ctrl), 10 μM PRTC, 10 μM PRTC-m and 10 μM PRTC-v. Cells were seeded into 6-well plates (500 cells per well) and cultured for 8 days.(C) CellproliferationassayofAsPc-1cellstreatedwith deionizedwater(Ctrl), 10μMPRTC,10μM PRTC-m and 10 μM PRTC-v.(D-E) Colony formation of MIA PaCa-2 respectively treated with deionized H2O (Ctrl), 10 μM PRTC, PRTC-m and PRTC-v.(F) Cell proliferation assay of MIA PaCa-2cells treatedwith deionizedH 2O(Ctrl),10μMPRTC, PRTC-mandPRTC-v. (G)Tumor volumesofxenografttumors,whichweremeasuredbycalipers. V=( a× b2)/2(V isvolume, a is the length of the tumor,b is the width of the tumor). (H) Cell proliferation assay of […]
as §2, §3

AsPc-1 cells = test: Colony formation; type: cell-based; settings: 10 μM, 500 cells per well, 8 days, than the control cells
Experimental: as §4, §5, §2, §3

Q: For `CC[C@H](C)[C@H](N)C(=O)N[C@@H](Cc1ccc(O)cc1)C(=O)N1C[C@H](O)C[C@H]1C(=O)N[C@@H](C)C(=O)N[C@@H](CC(C)C)C(=O)NCCCCCC(=O)N[C@@H](CCCCN)C(=O)N[C@@H](CC(=O)O)C(=O)N[C@H](C(=O)N[C@@H](CC(C)C)C(=O)N[C@@H](CO)C(=O)N[C@@H](CCC(=O)O)C(=O)N[C@@H](CCCCN)C(=O)N[C@@H](CCC(=O)O)C(=O)N[C@@H](CCCCN)C(=O)N[C@@H](CCCCN)C(=O)N[C@@H](CC(C)C)C(=O)N[C@@H](CCC(=O)O)C(=O)N[C@@H](CCC(=O)O)C(=O)N[C@@H](Cc1ccc(O)cc1)C(=O)N[C@@H](CCCCN)C(=O)N[C@@H](CCC(N)=O)C(=O)N[C@@H](CCCCN)C(=O)N[C@@H](CC(C)C)C(=O)N[C@@H](C)C(=O)N[C@@H](CCCNC(=N)N)C(=O)N[C@H](C(=O)N[C@@H](CCCNC(=N)N)C(=O)N[C@@H](CCCNC(=N)N)C(=O)N[C@@H](CCCNC(=N)N)C(=O)N[C@@H](CCCNC(=N)N)C(=O)N[C@@H](CCCCN)C(=O)O)C(C)C)C(C)C` [PRTC] (H-IY[Hyp]AL[Ahx]KDVLSEKEKKLEEYKQKLARVRRRRK-OH; N-terminus and C-terminus assumed), which “tumor weight and size” value (Panc-1 xenograft tumors) is on record?
A: significantly decreases

Q: And the “cell proliferation of a normal pancreatic epithelial cell line” value (HPDE6-C7 cells)?
A: failed to influence; also recorded: failed to inhibit

Q: What about the cell proliferation (Panc-1 cells) of the same compound?
A: dramatically inhibited

Q: And the “CREPT protein level upon different dosages” value [1]?
A: dramatically decreased

Q: What about the toxicity [2] of the same compound?
A: relatively low; also recorded: no toxicity

Q: What about the colony formation (MIA PaCa-2 cells) of the same compound?
A: fewer colonies

Q: And the colony formation (AsPc-1 cells)?
A: fewer colonies
